Data on six compounds can be found in US8871753B2, “Macrocyclic compounds and their use as kinase inhibitors” (Incyte Corporation, priority 2008, dated 2014).

What all share (type): biochemical
For assay [1], the target named is T1, human JAK2 (a.a. 828-1132) (Homo sapiens, UniProt O60674).
T1 construct: JAK2 (a.a. 828-1132); His tag (N); made in house; host or cells: insect cells (baculovirus)
As to the kind of experiment: In vitro JAK kinase assay (HTRF, phosphorylation of a biotinylated peptide), JAK2. As to conditions: method AA1 (30 μM ATP) or AA2 (1000 μM ATP), not stated per value. The gist of the method:
(§1)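 Kinase reactions ran at room temperature for 1 h with ATP matched per isoform (JAK1 90 μM, JAK2 30 μM, JAK3 3 μM). After an EDTA stop, the phosphorylated biotin-peptide was read by HTRF using Eu-Py20 and SA-APC after 40 min binding.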
For orientation: Time-resolved FRET reads energy transfer from a long-lived donor to a nearby acceptor.

The next assay concerns the target TYK2 (Homo sapiens, UniProt P29597). As to the kind of experiment: TYK2 kinase inhibition (Table A1).
In assay [2] the target is T2, Recombinant Human Anaplastic Lymphoma Kinase (Homo sapiens, UniProt Q9UM73).
T2 construct: purchased Invitrogen, Carlsbad, Calif
Put plainly: ALK HTRF kinase assay. As to conditions: compound at 500 nM or 1 mM; 90 μM ATP. The method, boiled down: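 IC50 was obtained from a logistic fit of signal versus log inhibitor concentration, using pre- and post-transition baselines and a Hill slope. The signal reported tyrosine phosphorylation of a biotinylated peptide by recombinant human kinase, detected as Eu-to-APC energy transfer.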

Assay [3] concerns the target T3, human JAK1 (a.a. 837-1142) (Homo sapiens, UniProt P23458).
T3 construct: human JAK1 (a.a. 837-1142); His tag (N); made in house; host or cells: insect cells (baculovirus)
Put plainly: In vitro JAK kinase assay (HTRF, phosphorylation of a biotinylated peptide), JAK1. As to conditions: method AA1 (90 μM ATP) or AA2 (1000 μM ATP), not stated per value; read-out: JAK1 IC50. The method, boiled down:
as §1

Assay [4] has as its target T4, human JAK3 (a.a. 781-1124) (Homo sapiens, UniProt P52333).
T4 construct: JAK3 (a.a. 781-1124); His tag (N); made in house; host or cells: insect cells (baculovirus)
Put plainly: In vitro JAK kinase assay (HTRF, phosphorylation of a biotinylated peptide), JAK3. The settings on record: method AA1 (3 μM ATP) or AA2 (1000 μM ATP), not stated per value. The method, boiled down:
as §1

Each structure is given as a SMILES string. Structures can show the parent of a compound that is named as a salt.

Chain of TYK2 (P29597 whole entry): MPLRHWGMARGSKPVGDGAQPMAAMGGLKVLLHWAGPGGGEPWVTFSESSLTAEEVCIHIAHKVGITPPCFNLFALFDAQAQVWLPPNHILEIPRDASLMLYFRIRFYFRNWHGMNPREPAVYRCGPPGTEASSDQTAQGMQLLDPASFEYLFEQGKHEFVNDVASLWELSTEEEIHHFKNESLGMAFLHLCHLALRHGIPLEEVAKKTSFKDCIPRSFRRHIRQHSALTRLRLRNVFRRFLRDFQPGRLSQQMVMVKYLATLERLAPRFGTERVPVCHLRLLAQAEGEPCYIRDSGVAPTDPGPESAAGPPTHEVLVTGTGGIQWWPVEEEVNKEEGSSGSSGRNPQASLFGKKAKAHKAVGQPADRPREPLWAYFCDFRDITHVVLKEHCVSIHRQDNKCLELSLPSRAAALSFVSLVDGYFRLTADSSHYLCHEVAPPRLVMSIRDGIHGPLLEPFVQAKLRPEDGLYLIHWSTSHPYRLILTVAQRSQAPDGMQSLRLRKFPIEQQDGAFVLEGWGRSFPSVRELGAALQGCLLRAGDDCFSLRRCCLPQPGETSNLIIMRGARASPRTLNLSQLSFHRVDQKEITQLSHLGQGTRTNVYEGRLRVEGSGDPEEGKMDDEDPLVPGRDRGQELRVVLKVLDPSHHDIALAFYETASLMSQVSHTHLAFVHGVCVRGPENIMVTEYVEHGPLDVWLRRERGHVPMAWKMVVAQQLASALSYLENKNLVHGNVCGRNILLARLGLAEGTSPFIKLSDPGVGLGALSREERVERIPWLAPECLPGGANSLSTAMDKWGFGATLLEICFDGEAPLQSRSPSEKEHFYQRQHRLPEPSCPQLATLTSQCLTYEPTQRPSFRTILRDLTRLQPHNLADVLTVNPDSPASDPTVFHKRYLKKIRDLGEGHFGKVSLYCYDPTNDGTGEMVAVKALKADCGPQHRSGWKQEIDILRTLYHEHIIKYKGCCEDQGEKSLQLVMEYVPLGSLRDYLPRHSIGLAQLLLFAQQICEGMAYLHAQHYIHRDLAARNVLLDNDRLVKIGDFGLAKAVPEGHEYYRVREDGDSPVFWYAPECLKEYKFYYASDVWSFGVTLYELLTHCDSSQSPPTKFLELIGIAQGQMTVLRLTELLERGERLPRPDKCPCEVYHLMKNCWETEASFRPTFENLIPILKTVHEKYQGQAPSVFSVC
T3 sequence (P23458 849-1154): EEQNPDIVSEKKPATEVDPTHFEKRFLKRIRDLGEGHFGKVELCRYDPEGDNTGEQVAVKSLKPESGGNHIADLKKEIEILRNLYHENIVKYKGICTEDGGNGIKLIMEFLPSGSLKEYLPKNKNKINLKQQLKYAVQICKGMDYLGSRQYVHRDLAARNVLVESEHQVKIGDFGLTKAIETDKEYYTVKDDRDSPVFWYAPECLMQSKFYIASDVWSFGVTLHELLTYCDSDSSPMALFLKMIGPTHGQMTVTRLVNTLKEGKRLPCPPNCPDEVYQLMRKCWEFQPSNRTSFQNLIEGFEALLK
T2 sequence (Q9UM73 19-1620): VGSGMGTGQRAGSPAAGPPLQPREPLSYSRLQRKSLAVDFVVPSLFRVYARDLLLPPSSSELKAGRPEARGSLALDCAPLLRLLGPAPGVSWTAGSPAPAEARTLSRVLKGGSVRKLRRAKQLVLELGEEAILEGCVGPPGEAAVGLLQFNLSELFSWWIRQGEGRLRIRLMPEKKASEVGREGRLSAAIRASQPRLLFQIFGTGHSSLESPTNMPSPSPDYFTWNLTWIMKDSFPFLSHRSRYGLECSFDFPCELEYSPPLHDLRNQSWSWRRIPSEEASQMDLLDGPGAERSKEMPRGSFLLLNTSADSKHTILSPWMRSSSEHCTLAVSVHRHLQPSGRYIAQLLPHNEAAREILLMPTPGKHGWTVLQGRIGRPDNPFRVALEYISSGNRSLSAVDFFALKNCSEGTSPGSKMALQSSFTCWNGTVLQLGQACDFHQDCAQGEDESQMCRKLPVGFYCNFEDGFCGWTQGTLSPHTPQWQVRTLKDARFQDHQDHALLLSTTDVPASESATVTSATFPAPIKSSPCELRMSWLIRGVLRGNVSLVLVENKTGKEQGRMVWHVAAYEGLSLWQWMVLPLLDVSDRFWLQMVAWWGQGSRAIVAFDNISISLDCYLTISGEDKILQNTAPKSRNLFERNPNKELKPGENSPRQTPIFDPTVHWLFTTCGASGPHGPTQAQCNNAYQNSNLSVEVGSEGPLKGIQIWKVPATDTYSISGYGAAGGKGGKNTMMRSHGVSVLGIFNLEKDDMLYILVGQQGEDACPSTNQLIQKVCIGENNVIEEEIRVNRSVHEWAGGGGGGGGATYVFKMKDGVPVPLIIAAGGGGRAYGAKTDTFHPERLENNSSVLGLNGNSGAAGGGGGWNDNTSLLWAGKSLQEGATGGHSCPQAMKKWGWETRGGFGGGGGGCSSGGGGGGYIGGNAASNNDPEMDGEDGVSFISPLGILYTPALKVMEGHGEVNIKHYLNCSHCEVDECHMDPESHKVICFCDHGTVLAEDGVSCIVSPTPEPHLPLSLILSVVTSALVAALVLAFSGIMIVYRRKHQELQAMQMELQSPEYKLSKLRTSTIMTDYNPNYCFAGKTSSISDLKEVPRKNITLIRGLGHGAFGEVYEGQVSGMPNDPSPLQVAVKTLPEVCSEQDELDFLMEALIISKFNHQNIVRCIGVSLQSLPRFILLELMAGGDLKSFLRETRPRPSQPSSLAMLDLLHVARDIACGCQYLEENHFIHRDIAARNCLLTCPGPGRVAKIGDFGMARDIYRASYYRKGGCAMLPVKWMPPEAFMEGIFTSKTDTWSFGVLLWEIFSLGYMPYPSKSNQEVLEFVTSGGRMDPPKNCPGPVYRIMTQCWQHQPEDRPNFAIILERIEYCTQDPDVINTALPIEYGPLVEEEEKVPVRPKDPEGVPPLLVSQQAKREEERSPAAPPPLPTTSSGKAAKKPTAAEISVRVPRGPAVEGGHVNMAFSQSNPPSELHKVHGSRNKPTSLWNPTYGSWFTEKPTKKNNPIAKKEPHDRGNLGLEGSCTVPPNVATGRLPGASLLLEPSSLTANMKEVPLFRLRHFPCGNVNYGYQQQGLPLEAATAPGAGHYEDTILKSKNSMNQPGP
T4 sequence (P52333 781-1124): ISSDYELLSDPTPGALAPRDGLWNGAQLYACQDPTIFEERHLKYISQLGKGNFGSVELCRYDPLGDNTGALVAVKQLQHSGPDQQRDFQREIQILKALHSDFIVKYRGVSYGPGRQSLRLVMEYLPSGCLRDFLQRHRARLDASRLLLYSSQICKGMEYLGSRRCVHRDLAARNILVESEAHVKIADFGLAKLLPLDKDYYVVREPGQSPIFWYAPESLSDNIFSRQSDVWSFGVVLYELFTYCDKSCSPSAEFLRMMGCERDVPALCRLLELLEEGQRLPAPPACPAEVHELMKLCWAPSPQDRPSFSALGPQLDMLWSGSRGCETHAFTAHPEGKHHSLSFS
T1 sequence (O60674 828-1132): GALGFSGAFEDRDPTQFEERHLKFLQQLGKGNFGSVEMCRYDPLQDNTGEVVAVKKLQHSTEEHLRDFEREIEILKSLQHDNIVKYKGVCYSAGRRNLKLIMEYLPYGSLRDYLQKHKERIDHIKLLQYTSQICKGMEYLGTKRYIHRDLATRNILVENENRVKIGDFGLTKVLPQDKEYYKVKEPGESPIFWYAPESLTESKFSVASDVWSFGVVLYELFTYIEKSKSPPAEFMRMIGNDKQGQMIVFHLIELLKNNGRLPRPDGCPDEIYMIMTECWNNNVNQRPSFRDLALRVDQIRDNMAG

For the compound `O=C(CN1CCNCC1)Nc1ccc2cc1CCc1cncc(c1)Nc1ncc(Cl)c(n1)N2` [Example A115, N-[6-Chloro-2,4,8,18,22-pentaazatetracyclo[14.3.1.1(3,7).1(9,13)]docosa-1(20),3(22),4,6,9(21),10,12,16,18-nonaen-12-yl]-2-piperazin-1-acetamide tetrakis(trifluoroacetate)], the concentration for half-maximal inhibition (IC50) (in general, the concentration that gives 50% inhibition) in assay [1] was 42 nM; on TYK2, 45 nM; in assay [3], 34 nM; in assay [4], 300 nM. Further, the “ALK % of inhibition at a concentration of 500 nM or 1 mM” value (shortened to “ALK % of inhibition”) in assay [2] is given as 20%.

As to `O=C(CCC1CCNCC1)Nc1ccc2cc1CCc1cccc(c1)Nc1ncc(Cl)c(n1)N2` [Example A116, N-[6-Chloro-2,4,8,22-tetraazatetracyclo[14.3.1.1(3,7).1(9,13)]docosa-1(20),3(22),4,6,9(21),10,12,16,18-nonaen-12-yl]-3piperidin-4-ylpropanamide bis(trifluoroacetate)], the IC50 was found to be 20 nM in assay [1], 33 nM on TYK2, 14 nM in assay [3] and 44 nM in assay [4]. For the same compound, the “ALK % of inhibition” value in assay [2] was found to be 27%.

Consider `O=C(CCC1CCNCC1)Nc1ccc2cc1CCc1cncc(c1)Nc1ncc(Cl)c(n1)N2` [Example A117, N-[6-Chloro-2,4,8,18,22-pentaaazatetracyclo[14.3.1.1(3,7).1(9,13)]docosa-1(20),3(22),4,6,9(21),10,12,16,18-nonaen-12-yl]-3piperidin-4-ylpropanamide tris(trifluoroacetate)], for which the 50% inhibitory concentration (IC50) in assay [1] was determined as 29 nM; against TYK2, 44 nM; in assay [3], 10 nM; in assay [4], 160 nM. The “ALK % of inhibition” value in assay [2] is 25%.

For the compound `O=C(CN1CCN(c2nc3cccnc3o2)CC1)Nc1ccc2cc1CCc1cncc(c1)Nc1ncc(Cl)c(n1)N2` [Example A118, N-[6-Chloro-2,4,8,18,22-pentaazatetracyclo[14.3.1.1(3,7).1(9,13)]docosa-1(20),3(22),4,6,9(21),10,12,16,18-nonaen-12-yl]-2-(4-[1,3]oxazolo[5,4-b]pyridin-2-ylpiperazin-1-yl)acetamide tris(trifluoroacetate)], the IC50 in assay [1] is 16 nM; against TYK2, 20 nM; in assay [3], 0.9 nM; in assay [4] it was 150 nM. The “ALK % of inhibition” value in assay [2] turned out to be 29%.

`Cc1cc(C(=O)N2CCN(CC(=O)Nc3ccc4cc3CCc3cncc(c3)Nc3ncc(Cl)c(n3)N4)CC2)no1` [Example A119, N-[6-Chloro-2,4,8,18,22-pentaazatetracyclo[14.3.1.1(3,7).1(9,13)]docosa-1(20),3(22),4,6,9(21),10,12,16,18-nonaen-12-yl]-2-{4-[(5-methylisoxazol-3-yl)carbonyl]piperazin-1-yl}acetamide tris(trifluoroacetate)]: the IC50 in assay [1] was found to be 16 nM; at TYK2 it was 8.6 nM; in assay [3], 3.6 nM; in assay [4] it was 174 nM. Besides, in assay [2], the “ALK % of inhibition” value came to 15%.

In the case of `Cc1cc(C(=O)N2CCC(C(=O)Nc3ccc4cc3CCc3cccc(c3)Nc3ncc(Cl)c(n3)N4)CC2)no1` [Example A120, N-[6-Chloro-2,4,8,22-tetraazatetracyclo[14.3.1.1(3,7).1(9,13)]docosa-1(20),3(22),4,6,9(21),10,12,16,18-nonaen-12-yl]-1-[(5-methylisoxazol-3-yl)carbonyl]piperidine-4-carboxamide trifluoroacetate], the IC50 came to 16 nM in assay [1], 37 nM against TYK2, 21 nM in assay [3] and 112 nM in assay [4]. Also, the “ALK % of inhibition” value in assay [2] stood at 42%.
